Test results: patent US20100029654A1, “CARDIOVASCULAR COMPOSITIONS AND USE OF THE SAME FOR THE TREATMENT OF ALZHEIMER'S DISEASE” (MOUNT SINAI SCHOOL OF MEDICINE, priority 2006, published 2010)
Entries after “also recorded” stand apart in the source; their conditions may differ. Read-outs that look alike come from different tables or passages of the source.

Tests used:
[1] = system: Aβ1-40; experiment: Aβ1-40 content in conditioned medium of primary cortico-hippocampal neuron cultures from Tg2576 mice (ELISA; primary and secondary dose-response screening); assay type: cell-based, mouse; conditions: for Ab1-40 (% of ctl): drug 100 μM
Summary of the method: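 Primary cortico-hippocampal neurons from embryonic Tg2576 mice were plated at 1.0×10^5 cells per well on poly-D-lysine-coated 96-well plates in Neurobasal with 2% B27, 0.5 mM L-glutamine and 1% penicillin-streptomycin. Cultures received drug in 1% DMSO, and Aβ1-40 in the conditioned medium was measured by BioSource ELISA 24 hours after treatment, relative to vehicle controls.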

[2] = system: α-secretase; parameters: dose or concentration left out as unconfirmed; conditions: primary Tg2576 neuron cultures, 16 hours
[3] = system: Tg2576 mice; experiment: blood pressure (systolic, diastolic, MAP) by tail-cuff; assay type: in vivo, mouse
Description: FIG. 1 Tg2576 mice are characterized by normal blood pressure under basal conditions. Baseline measurements of systolic, diastolic blood pressure, and mean arteriole blood pressure (MAP) in ˜11 month old female Tg2576 mice. Strain-, age-, gender-matched WT mice were measured using a commercial blood pressure analysis system designed specifically for small rodents (Hatteras Instruments, NC). Following manufacturer's instruction, mice were temporarily immobilized in a restraining chamber and an inflated tail-cuff wrapped around the tail was used to measure the systolic pressure, diastolic pressure, and MAP. Each blood pressure determination was calculated as the mean of 10 individual measurements per animal (n=6-10 group).
FIG. 6A-C show body weight of mice in response to ˜3 weeks of treatment. […] FIG. 6D-F show the assessment of systolic, diastolic, and MAP blood pressure in Tg2576 mice in response to drug doses below or within the range of those prescribed in hypertension. Blood pressure measurements were conducted using a commercial blood pressure analysis system designed specifically for small rodents (Hatteras Instruments, NC). Following manufacturer's instruction, mice were temporarily immobilized in a restraining chamber and an inflated tail-cuff wrapped around the tail was used to measure pressures. Each blood pressure determination was calculated as the mean of 10 individual measurements per animal. In A-F, values represent mean±SEM values, n=3-5 mice per group. 2-tailed t-test: *P<0.05.
Assessment of blood pressure and glucose utilization. Mouse blood pressure was routinely recorded using a commercial blood pressure analysis system designed specifically for small rodents (Hatteras Instruments, NC). […] Briefly, mice were given a single dose of glucose post-prandially (i.p. 2 g/kg body weight). Blood was collected from the tail-vein periodically over a 2-hour period. Blood glycemic content was assessed using the OneTouch LifeScan System, (LifeScan, Milpitas, Calif.) following the manufacturer's instruction.

[4] = valsartan concentration in blood (serum) by MRM mass spectrometry; assay type: in vivo, mouse; conditions: chronically valsartan-treated mice (40 mg/kg)
From the text: A series high throughput studies were initiated to assess and quantify antihypertensive drug levels and related metabolites in Tg 2576 and WT controls following in vivo treatments. […] Presently, using QSTAR (QqTOF) mass spectrometry, which delivers high sensitivity and resolution as well as unparalleled mass accuracy for determination of molecular weights of drugs and related metabolites at femtomole levels, the inventor is proceeding with studies aimed at detecting and eventually quantitating antihypertensive drugs and related metabolites in the brain or CSF. Thus, these technologies will accurate determination of the penetration of the blood brain barrier of candidate Aβ lowering antihypertensives in response to chronic treatments in vivo.

[5] = system: primary cortico-hippocampal neuron cultures; experiment: MTT in primary screening
[6] = molecular target: β-secretase (Mus musculus, UniProt P56818); parameters: dose or concentration left out as unconfirmed; conditions: primary Tg2576 neuron cultures, 16 hours
[7] = system: γ-secretase; parameters: dose or concentration left out as unconfirmed; conditions: primary Tg2576 neuron cultures, 16 hours
[8] = system: Aβ1-42; experiment: Aβ1-42 content in conditioned medium of primary cortico-hippocampal neuron cultures from Tg2576 mice (ELISA; primary and secondary dose-response screening); assay type: cell-based, mouse
[9] = system: Aβ1-42; experiment: as above; assay type: cell-based, mouse; conditions: for Ab1-42 (% of ctl): drug 100 μM
Summary of the method: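 This screen tested cardiovascular drugs for Aβ-lowering in Tg2576 embryonic cortico-hippocampal neuron cultures plated at 1.0×10^5 cells per well in poly-D-lysine-coated 96-well plates with Neurobasal/B27 medium. Drugs at 100 μM were added directly to the medium in duplicate, with 1% DMSO alone as the control. Conditioned medium was then collected, and its Aβ1-42 level was quantified with BioSource ELISA kits.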

[10] = molecular target: T1, Aβ1-42 peptide (Homo sapiens, UniProt P05067); experiment: Aβ-peptide oligomerization assay in vitro (Western blot, A11 dot blot); assay type: biochemical
T1 construct: Lyophilized Aβ1-42 peptide was dissolved
Description: Aβ-peptideoligomerization assay in vitro: Lyophilized Aβ1-42 peptide was dissolved in 1,1,1,3,3,3,-hexafluoro-2-propanol (HFIP, from Sigma), incubated at room temperature for 60 min, aliquoted, vacuum dried and stored at −80° C. Aβ peptide was dissolved in DMSO and diluted into ddH2O to a final concentration of 100 μg/ml. The peptide was then mixed with equal volume of drugs and incubated at 37° C. for 1 day (Klein, W. L. 2002. Neurochemistry International 41:345-352).
Following incubation, samples were centrifuged at 14,000×g for 10 min at 4° C. Supernatants were mixed with 2× SDS sample buffer and separated on a 10-20% Tris-Tricine gradient SDS gel (Invitrogen). The separated peptides were subjected to Western blot using 6E10 antibody (1:1000, Signet, St. Louis). Immunoreactive signals were visualized by using enhanced chemiluminescence detection (Amersham), and quantified densitometrically (Quantity One, Bio-Rad).
Immunoreactive signals were detected and quantified as described above.

[11] = Primary Screening, table sorted by Aβ1-40
[12] = primary screening, Tg2576 neuron cultures, table sorted by Aβ1-42

T1 sequence (P05067 672-713 limits assumed): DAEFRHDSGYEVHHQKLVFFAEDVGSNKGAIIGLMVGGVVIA
Chain of β-secretase (P56818 46-501): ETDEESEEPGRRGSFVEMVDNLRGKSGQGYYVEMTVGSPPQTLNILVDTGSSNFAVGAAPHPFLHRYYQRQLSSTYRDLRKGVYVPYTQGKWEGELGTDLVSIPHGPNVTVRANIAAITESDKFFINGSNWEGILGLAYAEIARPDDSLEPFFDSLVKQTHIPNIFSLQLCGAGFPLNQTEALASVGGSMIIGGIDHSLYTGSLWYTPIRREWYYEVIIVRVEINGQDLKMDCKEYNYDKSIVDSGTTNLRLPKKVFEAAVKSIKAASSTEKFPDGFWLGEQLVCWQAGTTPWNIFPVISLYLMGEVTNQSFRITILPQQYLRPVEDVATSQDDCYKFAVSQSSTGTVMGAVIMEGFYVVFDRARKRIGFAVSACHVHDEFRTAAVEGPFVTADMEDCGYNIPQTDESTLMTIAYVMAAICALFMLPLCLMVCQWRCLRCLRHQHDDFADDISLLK

N-(1-oxopentyl)-N-[[2-(1H-tetrazol-5-yl) [1,1-biphenyl]-4-yl]methyl]-L-valine [Valsartan]
Ab1-40 (% of ctl) [1, 11]: 51.6 % of ctl
EC50 ([1]; Table IV, dose-response 0.01-100 μM, read-out: EC50 (M): Ab-lowering activity Abeta1-40): 1.44e-05 M
EC50 ([1]; conditioned medium of primary cortico-hippocampal neuron cultures from Tg2576 embryos, 24 hours after treatment, relative to vehicle (1% DMSO) control, read-out: EC50 (molar) Aβ1-40): 1.44e-05 M
reduced Aβ1-40 ([1]; primary screening, <85% of ctl): reduced Aβ1-40
Ab1-40 (% of ctl) [1, 12]: 51.6 % of ctl
EC50 ([1]; secondary dose-response screening 0.01-100 μM, 24 hours, read-out: EC50 (molar) Aβ1-40): 1.44e-05 M
α-secretase activity [2]: no detectable change
systolic, diastolic, MAP blood pressure ([3]; WT mice, valsartan): no detectable changes in systolic, diastolic, or MAP
systolic, diastolic, MAP blood pressure ([3]; normotensive Tg2576 mice, valsartan 10 or 40 mg/kg/day, chronic): did not significantly influence systolic, diastolic, or MAP; also recorded: did not influence systolic, diastolic, and MAP blood pressure; also recorded: failed to produce a statistically significant change
steady state levels in the blood (serum) [4]: successfully detected steady state levels
MTT (% of ctl) [5, 11]: 67.4 % of ctl
MTT (% of ctl) ([5]; primary screening, table sorted by Aβ1-42): 67.4 % of ctl
β-secretase activity [6]: selectively inhibition of β-secretase activity
γ-secretase activity [7]: no detectable change
EC50 ([8]; Table IV, dose-response 0.01-100 μM, read-out: EC50 (M): Ab-lowering activity Aβ1-42): 1.79e-05 M
EC50 ([8]; conditioned medium of primary cortico-hippocampal neuron cultures from Tg2576 embryos, 24 hours after treatment, relative to vehicle (1% DMSO) control, read-out: EC50 (molar) Aβ1-42): 1.79e-05 M
EC50 ([8]; secondary dose-response screening 0.01-100 μM, 24 hours, read-out: EC50 (molar) Aβ1-42): 1.79e-05 M
Ab1-42 (% of ctl) [9, 11]: 42.0 % of ctl
reducing Aβ1-42 ([9]; primary screening, <85% of ctl): useful in reducing Aβ1-42
Ab1-42 (% of ctl) [9, 12]: 42.0 % of ctl
in vitro anti-Aβ oligomerization activity compared with other Aβ-lowering antihypertensives [10]: qualitatively stronger in vitro anti-Aβ oligomerization activity
Aβ1-42 oligomerization (A11 dot-blot) ([10]; 24 hours after incubation, vs vehicle): prevented Aβ1-42 oligomerization
prevention of oligomerization of Aβ1-42 (and Aβ1-40) into >40 kDa HMW species (Western Blot) ([10]; valsartan 10 μM, vs vehicle): > 5 fold
